Patent US9796962B2, “Method for generating pancreatic hormone-producing cells” (Kyoto University, priority 2013, dated 2017)
Counter-ions that a name gives are not always drawn.

Experiments:
[1] = tested on: Human iPS cell line 201B7; assay: Differentiation of 201B7 with sodium cromoglicate used solely or with single additives in step 3; assay type: cell-based
Experimental: Human iPS cell line 201B7 was used. The cells were differentiated into insulin producing cells by the following steps. The colonies of the iPS cell line was grown to approximately 80-90% confluence in the culture plate and dissociated from the plate by using CTK solution (Reprocell). The dissociated colonies were then divided into single cells using Accutase™ and seeded in 24 well plates (Greiner) at 2.0×10^5/well. The cells were cultured in RPMI medium containing 1% B-27 added with activin A (100 ng/ml), CHIR99021 (1 μM) and Y-27632 (10 μM) for 2 days. Then, the cells were further cultured in RPMI medium containing 1% B-27 added with activin A (100 ng/ml) and CHIR99021 (1 μM) for more 3 days (Day 5). During this period, the medium was changed with the same fresh medium on the third (Day 3) and the fourth days (Day 4). The cells obtained in Step 1 were cultured in improved MEM Zinc Option medium containing 1% B-27 added with dorsomorphin (1 μM), retinoic acid (2 μM), and SB431542 (10 μM) for 6 days (Day 11). During this period, the medium was changed with the same fresh medium every two days. The cells obtained in Step 2 were cultured in improved MEM Zinc Option medium containing 1% B-27 added with sodium cromoglicate (10 mM) for more 8 days (Day 19). During this period, the medium was changed with the same fresh medium every four days. The ratio of insulin expression versus β-Actin expression was determined by using quantitative PCR. […] Then, the effect of sodium cromoglicate when used in combination with each of the four additives used in EXAMPLE 4: forskolin (10 μM), nicotinamide (10 mM), dexamethasone (10 μM), and ALK5 inhibitor II (5 μM) was determined.

[2] = tested on: iPS cell lines 418C1, 409B2 and 201B7; assay: Differentiation of three iPS cell lines into insulin positive cells; assay type: cell-based, human; conditions: 10 mM in step 3 vs control; all three iPS cell lines; FIG. 2A
Description: Three iPS cell lines, 418C1 and 409B2 (Okita K, et al, Nat Methods. 2011 8:409-412) and 201B7, all of which were generated from fibroblast cells, can be obtained from Center for iPS Cell Research and Application, Kyoto University. The iPS cell lines obtained from Kyoto University were differentiated into insulin positive cells by subjecting the cells to the same steps as those in Examples 1 and 2 with the exception that the concentration of sodium cromoglicate in the culture medium used in step 3 was 10 mM.

[3] = tested on: Human iPS cell line 201B7; assay: Differentiation of 201B7 with 8 days step 3: marker gene PCR, immune staining, insulin amount; assay type: cell-based
Experimental: Human iPS cell line 201B7 was used. The cells were differentiated into insulin producing cells by the following steps. The colonies of the iPS cell line was grown to 80-90% confluence in the culture plate and dissociated from the dish by using CTK solution (Reprocell). The dissociated colonies were then divided into single cells using Accutase™ and seeded in 24 well plates (Greiner) at 2.0×10^5/well.
The cells were cultured in RPMI medium containing 1% B-27 added with activin A (100 ng/ml), CHIR99021 (1 μM) and Y-27632 (10 μM) for 2 days. Then, the cells were further cultured in RPMI medium containing 1% B-27 added with activin A (100 ng/ml) and CHIR99021 (1 μM) for more 3 days (Day 5). During this period, the medium was changed with the same fresh medium on the third (Day 3) and the fourth days (Day 4).
The cells obtained in Step 1 were cultured in improved MEM Zinc Option medium containing 1% B-27 added with dorsomorphin (1 μM), retinoic acid (2 μM), and SB431542 (10 μM) for 6 days (Day 11). During this period, the medium was changed with the same fresh medium every two days.
The cells obtained in Step 2 were cultured in improved MEM Zinc Option medium containing 1% B-27 added with forskolin (10 μM), nicotinamide (10 mM), dexamethasone (10 μM), ALK5 inhibitor II ((2-(3-(6-Methylpyridin-2-yl)-1H-pyrazol-4-yl)-1,5-naphthyridine)) (5 μM) and sodium cromoglicate (10 mM) for more 8 days (Day 19). During this period, the medium was changed with the same fresh medium every four days.
The cells at each step were collected, i.e. on Day 0, Day 5, Day 11 and Day 19, and the expressions of marker genes were determined by PCR (FIG. 5B). In the group where cells were cultured in the presence of sodium cromoglicate in step 3, the expression of NGN3 and GHRE (Ghrelin) were confirmed. The expression of SST (somatostatin) in the group where cells were cultured in the presence of sodium cromoglicate in step 3 was higher than that in the group where cells were cultured in the absence of sodium cromoglicate.
Further, the cells were subjected to immune staining and confirmed the production of proteins corresponding to the marker genes (FIG. 5C). The amount of insulin produced by the cells obtained by culturing the cells in the presence of sodium cromoglicate in step 3 and that produced by the cells obtained by culturing in the absence of sodium cromoglicate were compared, and the amount of insulin produced by the cells obtained with sodium cromoglicate was higher than that produced by the cells obtained without sodium cromoglicate (FIG. 5D).
The cells were subjected to immune staining and the production of pancreatic hormones was confirmed (FIGS. 6A and 6B).

cell line 201B7 = assay: Ki67 staining, ability of differentiated cells to proliferate; assay type: cell-based, human; conditions: 10 mM, 12 days in step 3, FIG. 3
Experimental: Cells from cell line 201B7 were subjected to steps 1 and 2 in the same manner as above and cultured for 12 days in step 3. The obtained cells were stained with Ki67 and the ability of the cells to proliferate was evaluated. […] In addition, the obtained cells were treated by using BD Cytofix/Cytoperm™ Kit and stained with monoclonal anti-glucagon clone K79bB10 (SIGMA). The cells were analyzed by flow cytometry to determine the number of the glucagon positive cells.

Human ES cell line KhES3 = assay: Differentiation of human ES cell line KhES3 into insulin producing cells, flow cytometry; assay type: cell-based; conditions: step 3 with 4 factors plus 0.001-20 mM sodium cromoglicate, 12 days
Description: Human ES cell line KhES3 was obtained from Kyoto University and maintained in the manner as shown in H. Suemori et al. (2006), Biochem. Biophys. Res. Commun., 345:926-932, the contents of this document is herein incorporated by reference. The cells of KhES3 were differentiated into insulin producing cells according to the steps shown below. The colonies of the human ES cell line grown to approximately 70% confluent in the culture plate were dissociated from the plate by using CTK solution (Reprocell). The dissociated colonies were then divided into single cells using Accutase™ and seeded in 24 well plates (Greiner) at 2.0×10^5/well. The cells were cultured in RPMI medium containing 2% FBS added with activin A (100 ng/ml) and CHIR99021 (3 μM) for 5 days. During this period, the medium was changed with the same fresh medium on the third and the fourth days. The cells obtained in Step 1 were cultured in improved MEM Zinc Option medium containing 1% B-27 (Invitrogen Corp.) comprising dorsomorphin (1 μM), retinoic acid (2 μM), and SB431542 (10 μM) for 6 days. During this period, the medium was changed with the same fresh medium every two days. […] The obtained cells were treated by using BD Cytofix/Cytoperm™ Kit and then, stained with polyclonal guinea-pig anti Swine insulin antibody/anti-serum (DAKO) and analyzed using flow cytometry to determine the number of insulin producing cells.

[4] = tested on: Human iPS cell line 201B7; assay: Differentiation of human iPS cell line 201B7 into insulin producing cells (step 3 with 4 factors), flow cytometry; assay type: cell-based
Experimental: Human iPS cell line 201B7 (this cell line can be obtained from Center for iPS Cell Research And Application, Kyoto University, Takahashi K et al, Cell. 2007 131:861-72., the contents of this document is incorporated herein by reference) was used. The iPS cells were differentiated into insulin producing cells by using the following steps. The colonies of the iPS cell line were grown to 70% confluent in the culture plate and dissociated from the plate by using CTK solution (Reprocell). The dissociated colonies were then divided into single cells using Accutase™ and seeded in 24 well plates (Greiner) at 2.0×10^5/well. The cells were cultured in RPMI medium containing 2% FBS added with activin A (100 ng/ml) and CHIR99021 (3 μM) for 5 days. During this period, the medium was changed with the same fresh medium on the third and the fourth days. The cells obtained in Step 1 were cultured in improved MEM Zinc Option medium containing 1% B-27 (Invitrogen Corp.) added with dorsomorphin (1 μM), retinoic acid (2 μM), and SB431542 (10 μM) for 6 days. During this period, the medium was changed with the same fresh medium every two days. The cells obtained in Step 2 were cultured in improved MEM Zinc Option medium containing 1% B-27 (Invitrogen Corp.) added with forskolin (10 μM), nicotinamide (10 mM), dexamethasone (10 μM), ALK5 inhibitor II ((2-(3-(6-methylpyridin-2-yl)-1H-pyrazol-4-yl)-1,5-naphthyridine)) (5 μM) and sodium cromoglicate (0.001 mM, 0.01 mM, 0.1 mM, 1 mM, 5 mM, 10 mM or 20 mM) for more 12 days. During this period, the medium was changed with the same fresh medium every four days. The obtained cells analyzed using flow cytometry to determine the number of insulin producing cells in the same manner as Example 1. The addition of 1 mM or more sodium cromoglicate in the culture medium increased the ratio of insulin positive cells and the maximum insulin positive cell-ratio was obtained when 10 mM sodium cromoglicate was added (FIG. 1A). Insulin production was confirmed by immune staining of the cells (FIG. 1B). Further, cells were stained with anti-human C-peptide antibody (Peninsula Laboratories LLC.) and analyzed by flow cytometry to see the production of C-peptide which is obtained by processing of pro-insulin. […] The highest ratio of the insulin positive cells was obtained by 12 days-culture in step 3. […] (FIG. 2B) Cells from cell line 201B7 were subjected to steps 1 and 2 in the same manner as above and cultured for 12 days in step 3. The obtained cells were stained with Ki67 and the ability of the cells to proliferate was evaluated. […] In addition, the obtained cells were treated by using BD Cytofix/Cytoperm™ Kit and stained with monoclonal anti-glucagon clone K79bB10 (SIGMA). The cells were analyzed by flow cytometry to determine the number of the glucagon positive cells.

[5] = tested on: Pancreatic anlages from mice embryos E12.5, E14.5 and E16.5; assay: Differentiation of fetal pancreatic anlages into insulin producing cells (insulin promoter GFP); assay type: cell-based; conditions: 10 mM with 4 factors
Experimental: Pancreatic anlages were obtained from mice embryos E12.5, E14.5 and E16.5 that express GFP on the downstream of the insulin promoter. Each pancreatic anlage was cultured in a suspension culture in Improved MEM Zinc Option medium containing 1% B-27 added with forskolin (10 μM), nicotinamide (10 mM), dexamethasone (10 μM), ALK5 inhibitor II (5 μM) and sodium cromoglicate (10 mM) for 4 days.
Further, expression of insulin and Neurog 3 in thus obtained cells were analyzed by PCR and confirmed that the expression of those genes was increased in the cells cultured with sodium cromoglicate (FIG. 7C).

[6] = PCR, 10 mM in step 3, 8 days, FIG. 5B
[7] = immune staining, Day 19, FIGS. 6A and 6B

**Q.** With `O=C(O)c1cc(=O)c2c(OCC(O)COc3cccc4oc(C(=O)O)cc(=O)c34)cccc2o1` [sodium cromoglicate, sodium salt of 1,3-Bis(2-carboxychromon-5-yloxy)-2-hydroxypropane] as the compound, how does the “expression of insulin in combination with each single additive” value ([1]; combined with forskolin (10 μM), nicotinamide (10 mM), dexamethasone (10 μM) or ALK5 inhibitor II (5 μM)) read?
**A.** confirmed in all 4 combinations, although the amount of the expression was not so high

**Q.** And the “effect on the agents' induction of insulin producing cells in combination” value ([1]; combined with forskolin, nicotinamide, dexamethasone or ALK5 inhibitor II)?
**A.** enhances the effects of all 4 agents

**Q.** And the “amount of insulin positive cells” value ([1]; immune staining, 10 mM alone in step 3, 8 days, FIG. 8C)?
**A.** higher

**Q.** And the “ratio of insulin expression versus β-Actin expression, presence vs absence” value ([1]; quantitative PCR, 10 mM alone in step 3, 8 days, FIG. 8B)?
**A.** higher

**Q.** And the “ratio of insulin positive cells” value [2]?
**A.** ratio of insulin positive cells were increased

**Q.** And the “amount of insulin produced by the cells, presence vs absence” value ([3]; Day 19, 4Fs plus sodium cromoglicate vs 4Fs, FIG. 5D)?
**A.** higher

**Q.** What about the “expression of GHRE (Ghrelin)” value [3, 6] of the same compound?
**A.** confirmed

**Q.** What about the “expression of NGN3” value [3, 6] of the same compound?
**A.** confirmed

**Q.** What about the “expression of SST (somatostatin), presence vs absence” value [3, 6] of the same compound?
**A.** higher

**Q.** And the expression of glucagon [3, 7]?
**A.** increased

**Q.** What about the expression of insulin [3, 7] of the same compound?
**A.** increased

**Q.** And the expression of somatostatin [3, 7]?
**A.** increased

**Q.** What about the “number of Ki67 positive cells, presence vs absence” value (cell line 201B7) of the same compound?
**A.** no substantial difference

**Q.** And the “ratio of insulin positive cells” value (Human ES cell line KhES3)?
**A.** increased the ratio of insulin positive cells in a concentration dependent manner

**Q.** And the “ratio of insulin positive cells by culture period in step 3” value ([4]; 10 mM, 8, 12 and 16 days in step 3, FIG. 2B)?
**A.** increased in the groups cultured for 8 days, 12 days and 16 days

**Q.** What about the “effect on ratio of insulin positive cells, 4 days in step 3” value ([4]; 10 mM, 4 days in step 3, FIG. 2B) of the same compound?
**A.** also confirmed, although the efficiency was low

**Q.** What about the “ratio of insulin positive cells” value ([4]; 10 mM, 12 days in step 3, FIG. 4) of the same compound?
**A.** increased the ratio of both insulin positive cells and glucagon positive cells

**Q.** What about the “ratio of glucagon positive cells” value ([4]; 10 mM, 12 days in step 3, anti-glucagon flow cytometry, FIG. 4) of the same compound?
**A.** increased the ratio of both insulin positive cells and glucagon positive cells

**Q.** And the “culture period in step 3 giving the highest ratio of insulin positive cells” value ([4]; 10 mM, FIG. 2B)?
**A.** 12 days

**Q.** And the “production of C-peptide” value ([4]; anti-human C-peptide antibody, flow cytometry, FIG. 1C)?
**A.** increased by addition of sodium cromoglicate in a dose dependent manner

**Q.** What about the “concentration giving the maximum insulin positive cell-ratio” value ([4]; step 3 12 days, FIG. 1A) of the same compound?
**A.** 10 mM

**Q.** What about the “concentration in the culture medium that increased the ratio of insulin positive cells” value ([4]; step 3 12 days, FIG. 1A) of the same compound?
**A.** ≥ 1 mM

**Q.** And the “ratio of GFP positive cells” value ([5]; suspension culture 4 days, E12.5, E14.5, E16.5, FIG. 7B)?
**A.** increased the ratio of GFP positive cells in each embryonic pancreatic anlage

**Q.** What about the “expression of Neurog 3” value ([5]; PCR, 4 days, FIG. 7C) of the same compound?
**A.** increased

**Q.** And the expression of insulin ([5]; PCR, 4 days, FIG. 7C)?
**A.** increased
